Data on 23 compounds can be found in patent publication US5892045A, “4-aryl-3-hydroxyquinolin-2-one derivatives as ion channel modulators” (priority 1997, dated 1999).

The test system of the first assay is cloned mammalian (mSlo or hSlo) BK channels expressed in Xenopus oocytes. Briefly: Increase of cloned BK-mediated outward current, two-electrode voltage clamp in Xenopus oocytes (IBTX-sensitive current). The class given is cell-based. The following applies: at 20 μM expressed as percent of controls; at least 5 oocytes. The protocol:
The ability of compounds described in the present invention to open BK channels and increase whole-cell outward (K^+) BK-mediated currents was assessed under voltage-clamp conditions by determining their ability to increase cloned mammalian (mSlo or hSlo) BK-mediated outward current heterologously expressed in Xenopus oocytes [Butler, A., et al., Science, 261: 221-224 (1993); and Dworetzky, S. I., et al., Mol. Brain Res., 27: 189-193 (1994)]. The two BK constructs employed represent nearly structurally identical homologous proteins, and have proven to be pharmacologically identical in our tests. […] The relative contribution of BK channels current to total outward current was determined by subtraction of the current remaining in the presence of IBTX (non-BK current) from the current profiles obtained in all other experimental conditions (control, drug, and wash). […] All compounds were tested in at least 5 oocytes and are reported at the single concentration of 20 μM; the effect of the selected compounds of Formula I on BK current was expressed as the percent of control IBTX-sensitive current and is listed in Table I. Recordings were accomplished using standard two-electrode voltage clamp techniques [Stuhmer, W., et al., Methods in Enzymology, Vol. 207: 319-339 (1992)]; voltage-clamp protocols consisted of 500-750 ms duration step depolarization from a holding potential of -60 mV to +140 mV in 20 mV steps. The experimental media (modified Barth's solution) consisted of (in mM): NaCl (88), NaHCO3 (2.4), KCl (1.0), HEPES (10), MgSO4 (0.82), Ca(NO3)2 (0.33), CaCl2 (0.41); pH 7.5.
As to `COc1ccc(Cl)cc1-c1c(O)c(=O)[nH]c2cc(Cl)ccc12` [Example 5], the “BK Current (percent of control IBTX-sensitive current)” value is “+ (100-150%)”.

For the compound `O=c1[nH]c2ccc(Br)cc2c(-c2cc(Br)ccc2O)c1O` [Example 19], the “BK Current (percent of control IBTX-sensitive current)” value was “++ (>150%)”.

`Cn1c(=O)c(O)c(-c2cc(Br)ccc2O)c2ccccc21` [Example 7]: the “BK Current (percent of control IBTX-sensitive current)” value is “+ (100-150%)”.

On to `O=c1[nH]c2ccccc2c(-c2cc(Cl)ccc2O)c1O` [Example 8], for which the “BK Current (percent of control IBTX-sensitive current)” value is recorded as “+ (100-150%)”.

Turning to `O=c1[nH]c2cccc(Cl)c2c(-c2cc(Cl)ccc2O)c1O` [Example 14], the “BK Current (percent of control IBTX-sensitive current)” value is given as “+ (100-150%)”.

On to `O=c1[nH]c2cc(Cl)cc(Cl)c2c(-c2cc(Cl)ccc2O)c1O` [Example 2, 5,7-Dichloro-4-(5-chloro-2-hydroxyphenyl)-3-hydroxy-2(1H)-quinolinone], for which the “BK Current (percent of control IBTX-sensitive current)” value is reported as “++ (>150%)”.

Turning to `O=c1[nH]c2c(Cl)cccc2c(-c2cc(Cl)ccc2O)c1O` [Example 21], the “BK Current (percent of control IBTX-sensitive current)” value is given as “+ (100-150%)”.

Consider `O=c1[nH]c2ccc(C(F)(F)F)cc2c(-c2cc(Cl)ccc2O)c1O` [Example 16], for which the “BK Current (percent of control IBTX-sensitive current)” value is on record as “++ (>150%)”.

On to `O=c1[nH]c2cc(Cl)ccc2c(-c2cc(Cl)ccc2O)c1O` [Example 15], for which the “BK Current (percent of control IBTX-sensitive current)” value is reported as “++ (>150%)”.

Consider `Cn1c(=O)c(O)c(-c2cc(Cl)ccc2O)c2c(Cl)cc(Cl)cc21` [Example 18], for which the “BK Current (percent of control IBTX-sensitive current)” value is reported as “++ (>150%)”.

Turning to `O=c1[nH]c2cc(C(F)(F)F)ccc2c(-c2cc(Cl)ccc2O)c1O` [Example 10], the “BK Current (percent of control IBTX-sensitive current)” value is recorded as “++ (>150%)”.

As to `O=c1[nH]c2ccc(C(F)(F)F)cc2c(-c2cc(Br)ccc2O)c1O` [Example 17], the “BK Current (percent of control IBTX-sensitive current)” value is listed as “++ (>150%)”.

`O=c1[nH]c2ccc(Br)cc2c(-c2cc(Cl)ccc2O)c1O` [Example 20]: the “BK Current (percent of control IBTX-sensitive current)” value is “++ (>150%)”.

As for `O=c1[nH]c2ccc(Cl)cc2c(-c2cc(Cl)ccc2O)c1O` [Example 13], the “BK Current (percent of control IBTX-sensitive current)” value is recorded as “+ (100-150%)”.

Take `O=c1[nH]c2ccccc2c(-c2cc(Br)ccc2O)c1O` [Example 6]: the “BK Current (percent of control IBTX-sensitive current)” value is given as “+ (100-150%)”.

For `O=c1[nH]c2cc(C(F)(F)F)ccc2c(-c2cc(Br)ccc2O)c1O` [Example 11], the “BK Current (percent of control IBTX-sensitive current)” value is reported as “++ (>150%)”.

For the compound `O=c1[nH]c2cc(Cl)cc(Cl)c2c(-c2cc(Br)ccc2O)c1O` [Example 12], the “BK Current (percent of control IBTX-sensitive current)” value is listed as “++ (>150%)”.

Regarding `O=c1[nH]c2ccc([N+](=O)[O-])cc2c(-c2cc(Br)ccc2O)c1O` [Example 9], the “BK Current (percent of control IBTX-sensitive current)” value is “++ (>150%)”.

Take `COc1ccc(Br)cc1-c1c(O)c(=O)[nH]c2cc(Cl)cc(Cl)c12` [Example 4]: the “BK Current (percent of control IBTX-sensitive current)” value was “++ (>150%)”.

Consider `COc1ccc(Br)cc1-c1c(O)c(=O)[nH]c2ccc([N+](=O)[O-])cc12` [Example 3], for which the “BK Current (percent of control IBTX-sensitive current)” value was “+ (100-150%)”.

The test system of a further assay is BK channel.
Assay: not given
The settings on record: very limited electrophysiological experiments; Laurent 1993; cited from earlier work.
With `CNc1nc(Br)cn2cc(C#N)nc12` [SCA-40, 6-Bromo-8-(methylamino) imidazo[1,2-a]pyrazine-2-carbonitrile], the “BK channel opening activity” value is given as “BK channel opener”.

The subject of the next assay is Ca^2+ -activated potassium channels.
Assay: not given
The following applies: outside-out patches, myelinated nerve fibers; Koh 1994; cited from earlier work.
In the case of `O=C(CCc1ccc(O)cc1)c1c(O)cc(O)cc1O` [Phloretin], the “open probability of Ca^2+ -activated potassium channels” value is on record as “increase the open probability”.

Another assay relates to BK channel.
Assay: not given
The following applies: Galvez 1990; cited from earlier work.
Turning to “iberiotoxin: specific and potent BK channel-blocking toxin iberiotoxin (IBTX) (QFTDVDCSVSKECWSVCKDLFGVDRGKCMGKKCRCYQ; UniProt P24663 1-37, looked up)”, the BK channel block entry is “specific and potent BK channel-blocking toxin”.
